Data: patent US9670162B2, “Mitochondrial aldehyde dehyrogenase-2 modulators and methods of use thereof” (The Board of Trustees of the Leland Stanford Junior …, priority 2013, dated 2017)
pIC50: −log10 of the molar value.

Tests used:
[1] = tested on: unpurified human liver homogenates (liver mitochondria fraction), ALDH; assay: ALDH activity in human liver biopsy samples; assay type: biochemical; conditions: 20 μM, acetaldehyde substrate, 750 μg protein
Experimental: The study of compounds of the present disclosure on unpurified human liver homogenates was carried out according to methods known in the art. Briefly, 750 μg of the total unpurified protein from the liver mitochondria fraction was used in this assay. The kinetic increase of absorbance at λ340 nm was monitored for 15 minutes for NADH. For the first 3 minutes, the assay was carried in the absence of the substrate or AD-363 to establish the base line. As expected, no NADH production was detected. Substrate acetaldehyde was then added at the 3-min time point and the reaction monitored for the next 6 min to record the catalytic rate in the absence of an activator. Compound 161 (20 μM), was then added at the 9-min time point and the reaction monitored for the next 6 min to record the increase in catalytic rate.

hERG channel = hERG channel (Homo sapiens, UniProt Q12809); assay: hERG channel patch-clamp; assay type: cell-based
[2] = molecular target: T1, human ALDH2*2 recombinant mutant enzyme (E487K) (Homo sapiens, UniProt P05091, E504K); assay: ALDH2 enzymatic assay (NADH at 340 nm), recombinant mutant enzyme; assay type: biochemical; parameters: key: −: no activation or inhibition; +: activation less than control 1; ++: activation similar to control 1, within 10%; +++: activation more than control 1 and less than control (compound 161); ++++: activation similar to compound 161, within 10%; conditions: activation relative to benchmarks control 1 and compound 161
T1 construct: His-tag (pTrcHis vector) (N); made in house; host or cells: E. coli BL21
T1 sequence (P05091 18-517 E504K): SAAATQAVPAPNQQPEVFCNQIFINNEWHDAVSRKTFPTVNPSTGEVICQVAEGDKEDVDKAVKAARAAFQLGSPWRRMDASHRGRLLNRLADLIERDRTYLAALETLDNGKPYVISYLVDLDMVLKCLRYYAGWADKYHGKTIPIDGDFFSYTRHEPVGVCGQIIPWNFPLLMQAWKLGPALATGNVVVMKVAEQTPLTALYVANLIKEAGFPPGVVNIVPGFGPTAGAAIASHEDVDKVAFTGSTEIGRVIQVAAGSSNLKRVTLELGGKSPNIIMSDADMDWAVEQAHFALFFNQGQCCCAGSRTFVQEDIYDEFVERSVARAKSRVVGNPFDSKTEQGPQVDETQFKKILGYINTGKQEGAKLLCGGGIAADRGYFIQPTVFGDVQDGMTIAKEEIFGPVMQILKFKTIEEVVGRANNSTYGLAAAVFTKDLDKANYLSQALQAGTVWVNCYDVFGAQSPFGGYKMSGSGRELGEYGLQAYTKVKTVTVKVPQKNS

CYP2C9 = CYP2C9 (Homo sapiens, UniProt P11712); assay: Cyp inhibition 2C9; assay type: in vitro ADME
Experimental: (§1) In vitro ADMET of compounds of the present disclosure was carried out according to known methods in the art. Below are data for certain compounds of the present disclosure.

CYP2C19 = CYP2C19 (Homo sapiens, UniProt P33261); assay: Cyp inhibition 2C19; assay type: in vitro ADME; parameters: inhibition: dose or concentration left out as unconfirmed
Experimental: as §1

Aqueous solubility = assay type: physicochemical
Experimental: as §1

LogD (pH 7.4) = assay type: physicochemical
Experimental: as §1

[3] = tested on: mice treated with PO 5 g/kg of EtOH; assay: Mouse pharmacodynamics (PD) study after EtOH; assay type: in vivo
Experimental: Mice (male C57BL6 (8 to 9 weeks, 20-22 g)) were treated with PO […] of EtOH. Then PO 40 mg/kg or 60 mg/kg compound 161 were administered to the mice. […] FIG. 6 is a graph showing the behavior of mice at 120 min, 180 min, and 300 min. FIG. 7 is a graph showing the alcohol concentration (mg/dL) at 75 min and 180 min.
A PD study of IV administration of compound 161 was also carried out. The mice were treated with PO 5 g/kg of alcohol and were then treated with 10 mg/kg of compound 161 administered through IV. […] FIG. 8 is a graph showing the blood alcohol concentration (mg/dL) versus time (hr).

MLM stability T1/2 = assay type: in vitro ADME; conditions: mouse, liver microsomes
Experimental: as §1

Plasma stability, rat = assay type: in vitro ADME
Experimental: as §1

CYP2D6 = CYP2D6 (Homo sapiens, UniProt P10635); assay: Cyp inhibition 2D6; assay type: in vitro ADME
Experimental: as §1

NHPLM stability T1/2 = assay type: in vitro ADME; conditions: monkey, liver microsomes
Experimental: as §1

Sequence of CYP2C19 (P33261 whole entry): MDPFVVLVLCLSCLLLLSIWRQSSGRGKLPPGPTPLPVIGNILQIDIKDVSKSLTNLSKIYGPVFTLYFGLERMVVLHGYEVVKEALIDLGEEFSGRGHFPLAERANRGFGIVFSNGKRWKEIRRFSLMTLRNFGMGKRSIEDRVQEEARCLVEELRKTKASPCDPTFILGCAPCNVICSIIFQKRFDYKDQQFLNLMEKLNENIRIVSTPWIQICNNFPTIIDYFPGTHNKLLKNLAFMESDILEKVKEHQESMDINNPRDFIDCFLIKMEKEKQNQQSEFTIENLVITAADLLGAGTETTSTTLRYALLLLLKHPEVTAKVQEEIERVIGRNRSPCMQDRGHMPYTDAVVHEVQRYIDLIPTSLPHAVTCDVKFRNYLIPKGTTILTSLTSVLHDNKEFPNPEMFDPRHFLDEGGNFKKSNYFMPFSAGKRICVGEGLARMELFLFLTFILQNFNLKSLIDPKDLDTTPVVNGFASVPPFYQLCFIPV
Sequence of hERG channel (Q12809 whole entry): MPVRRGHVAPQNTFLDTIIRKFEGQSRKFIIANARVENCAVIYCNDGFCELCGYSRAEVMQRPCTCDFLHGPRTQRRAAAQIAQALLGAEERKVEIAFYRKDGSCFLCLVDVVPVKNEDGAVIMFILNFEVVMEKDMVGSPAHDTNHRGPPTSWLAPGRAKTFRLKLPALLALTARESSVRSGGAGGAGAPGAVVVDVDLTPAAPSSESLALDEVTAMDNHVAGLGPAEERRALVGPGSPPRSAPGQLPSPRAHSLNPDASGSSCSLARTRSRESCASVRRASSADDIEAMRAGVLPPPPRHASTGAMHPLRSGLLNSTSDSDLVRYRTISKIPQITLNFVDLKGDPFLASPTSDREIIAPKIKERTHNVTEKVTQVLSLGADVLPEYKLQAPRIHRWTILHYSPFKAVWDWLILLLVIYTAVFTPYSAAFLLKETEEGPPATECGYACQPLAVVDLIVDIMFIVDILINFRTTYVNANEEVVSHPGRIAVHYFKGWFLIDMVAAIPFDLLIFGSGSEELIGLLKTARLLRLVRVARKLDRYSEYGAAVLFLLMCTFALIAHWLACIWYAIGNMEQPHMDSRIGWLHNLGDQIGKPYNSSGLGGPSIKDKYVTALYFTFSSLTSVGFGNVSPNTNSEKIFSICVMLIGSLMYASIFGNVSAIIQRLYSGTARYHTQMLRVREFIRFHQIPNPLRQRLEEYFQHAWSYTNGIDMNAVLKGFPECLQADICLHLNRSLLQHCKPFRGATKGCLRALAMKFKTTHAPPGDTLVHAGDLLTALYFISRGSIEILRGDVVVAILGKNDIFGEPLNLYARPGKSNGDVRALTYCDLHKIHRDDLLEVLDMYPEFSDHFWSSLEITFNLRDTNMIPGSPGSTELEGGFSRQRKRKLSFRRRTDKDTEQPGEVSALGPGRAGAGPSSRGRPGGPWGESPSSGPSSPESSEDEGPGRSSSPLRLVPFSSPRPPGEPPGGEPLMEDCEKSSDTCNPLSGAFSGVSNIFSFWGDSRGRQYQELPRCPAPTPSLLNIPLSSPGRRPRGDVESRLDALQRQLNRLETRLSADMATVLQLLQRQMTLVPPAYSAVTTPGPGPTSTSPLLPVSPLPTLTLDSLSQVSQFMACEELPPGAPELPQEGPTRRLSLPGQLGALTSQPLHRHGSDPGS
Sequence of CYP2D6 (P10635 whole entry): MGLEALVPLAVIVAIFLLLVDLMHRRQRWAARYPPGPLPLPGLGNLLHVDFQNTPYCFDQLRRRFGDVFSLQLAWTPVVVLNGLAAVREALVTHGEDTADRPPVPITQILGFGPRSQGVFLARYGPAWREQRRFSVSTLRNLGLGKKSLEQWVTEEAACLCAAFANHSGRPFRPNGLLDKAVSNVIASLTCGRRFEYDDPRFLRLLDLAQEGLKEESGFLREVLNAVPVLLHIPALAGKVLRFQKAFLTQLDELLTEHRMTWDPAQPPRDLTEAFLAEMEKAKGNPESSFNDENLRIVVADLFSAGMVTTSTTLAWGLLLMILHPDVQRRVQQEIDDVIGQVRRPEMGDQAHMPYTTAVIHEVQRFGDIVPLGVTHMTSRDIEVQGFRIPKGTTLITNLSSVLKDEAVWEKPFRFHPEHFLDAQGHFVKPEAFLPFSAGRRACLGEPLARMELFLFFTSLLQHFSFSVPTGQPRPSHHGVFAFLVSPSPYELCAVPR
Sequence of CYP2C9 (P11712 whole entry): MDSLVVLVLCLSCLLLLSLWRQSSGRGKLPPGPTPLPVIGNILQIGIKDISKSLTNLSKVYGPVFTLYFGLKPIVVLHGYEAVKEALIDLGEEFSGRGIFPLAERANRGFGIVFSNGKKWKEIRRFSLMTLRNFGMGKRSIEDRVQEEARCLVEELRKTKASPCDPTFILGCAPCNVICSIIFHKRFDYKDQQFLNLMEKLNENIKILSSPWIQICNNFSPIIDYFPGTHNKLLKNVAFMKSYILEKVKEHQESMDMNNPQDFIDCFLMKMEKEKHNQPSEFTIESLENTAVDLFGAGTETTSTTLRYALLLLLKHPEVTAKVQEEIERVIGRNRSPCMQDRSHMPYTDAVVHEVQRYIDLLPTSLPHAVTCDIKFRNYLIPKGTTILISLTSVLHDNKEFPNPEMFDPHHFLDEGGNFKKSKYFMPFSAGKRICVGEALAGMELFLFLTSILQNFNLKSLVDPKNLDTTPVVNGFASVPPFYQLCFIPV

Structure (SMILES): COc1ccc(CNC(=O)c2c(Cl)ccnc2OCC2CC2)cc1F [Compound 161]
- increase of human liver enzyme's catalytic rate [1]: 2.38 folds
- pIC50 (hERG channel): < 4.52
- ALDH2 (mutant) [2]: ++++
- inhibition at 10 µM (CYP2C9): 5.7%
- inhibition (CYP2C19): 16%
- inhibition at 10 µM (CYP2C19; 10 μM): 15.9%
- Aqu. Solu. (Aqueous solubility): 28 µg/mL
- logD (LogD (pH 7.4)): 3
- blood alcohol levels ([3]; PO 5 g/kg EtOH, compound PO 40 mg/kg or 60 mg/kg): reduces blood alcohol levels
- blood alcohol levels ([3]; PO 5 g/kg alcohol, compound 10 mg/kg IV): reduces blood alcohol levels
- PD response (behavior observation) ([3]; PO EtOH, then PO 40 mg/kg or 60 mg/kg): significant PD response
- half-life (MLM stability T1/2): 2.08 min
- Plasma stability Rat (Plasma stability, rat): 100%
- inhibition at 10 µM (CYP2D6): 6.4%
- half-life (NHPLM stability T1/2): 2.54 min
